Entries after “also recorded” stand apart in the source; their conditions may differ.
Experiments:
human TLR7 = molecular target: T1, human TLR7 (Homo sapiens, UniProt Q9NYK1); assay: HEK/TLR7 activation assay (R848 stimulation); type: cell-based; settings: HEK cells transfected with human TLR7
T1 construct: expressed in transfected cells; host or cells: HEK cell line (HEK293, as in the primary assay)
T1 sequence (Q9NYK1 27-1049): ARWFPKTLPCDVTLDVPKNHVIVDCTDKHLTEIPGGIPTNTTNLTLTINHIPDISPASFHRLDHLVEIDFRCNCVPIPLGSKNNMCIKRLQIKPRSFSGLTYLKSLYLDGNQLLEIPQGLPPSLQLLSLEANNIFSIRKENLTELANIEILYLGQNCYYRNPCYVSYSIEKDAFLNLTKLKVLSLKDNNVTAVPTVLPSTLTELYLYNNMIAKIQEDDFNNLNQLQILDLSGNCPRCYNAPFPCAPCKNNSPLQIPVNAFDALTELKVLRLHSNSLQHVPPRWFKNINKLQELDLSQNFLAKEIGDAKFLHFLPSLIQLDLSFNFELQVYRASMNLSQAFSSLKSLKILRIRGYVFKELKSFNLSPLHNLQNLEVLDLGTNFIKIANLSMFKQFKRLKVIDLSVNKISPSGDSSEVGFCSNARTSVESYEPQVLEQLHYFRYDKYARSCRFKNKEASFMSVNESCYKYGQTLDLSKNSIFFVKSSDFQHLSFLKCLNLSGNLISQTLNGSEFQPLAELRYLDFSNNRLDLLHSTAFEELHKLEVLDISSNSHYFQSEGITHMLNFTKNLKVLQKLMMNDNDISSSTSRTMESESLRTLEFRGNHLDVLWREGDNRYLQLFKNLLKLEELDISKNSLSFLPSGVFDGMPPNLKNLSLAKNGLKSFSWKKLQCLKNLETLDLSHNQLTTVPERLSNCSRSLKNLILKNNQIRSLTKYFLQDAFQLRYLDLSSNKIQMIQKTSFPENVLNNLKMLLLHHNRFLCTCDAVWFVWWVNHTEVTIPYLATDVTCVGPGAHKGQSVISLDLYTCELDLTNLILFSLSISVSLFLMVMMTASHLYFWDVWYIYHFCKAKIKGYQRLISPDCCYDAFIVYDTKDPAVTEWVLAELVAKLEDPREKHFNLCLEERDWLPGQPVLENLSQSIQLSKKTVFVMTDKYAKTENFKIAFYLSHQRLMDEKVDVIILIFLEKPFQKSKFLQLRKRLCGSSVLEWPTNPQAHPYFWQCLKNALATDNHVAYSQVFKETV
Method: (1) HEK/TLR7Activation Assay: The same compounds were tested in the same way as the primary assay with the following differences. The plasmid used to transfect the HEK cell line encoded for human TLR7 instead of TLR9, and R848 was used to stimulate the cells instead of Oligo CpG 2006.

[1] = system: human PBMC α-interferon response to Oligo CpG 2216; assay: PBMC CpG 2216 assay (α-interferon ELISA); type: cell-based; settings: Oligo CpG 2216, 72 hrs, read-out: PBMC CpG2216 IC50
Method: (4) PBMC CpG 2216 Assay: A subset of compounds tested as described above were also assayed for suppression of human peripheral blood mononuclear cells (PBMC) α-interferon response to stimulation with Oligo CpG 2216, a synthetic oligo phosphorothioate/phosphodiester oligonucleotide (Vollmer et al. Eur J. Immunol. 34:251-62 (2004)), with nucleotide sequence 5′-ggG GGA CGA TCG TCg ggg gG-3′ (small letters indicate phosphorothioate linkages, all others are phosphodiester) (SEQ ID NO:3). Each compound was added to […] from healthy volunteer donors before addition of stimulatory oligonucleotide. Cells were stimulated in culture for 72 hrs and the supernatant was removed for ELISA analysis of α-interferon level was performed using a VeriKine™ Human IFN-Alpha ELISA kit (Pestka Biomedical Laboratories, N.J.).

[2] = system: lymph node IL-6 release on CpG 1668 stimulation; assay: Lymph node response: in vivo dosing, ex vivo CpG 1668 stimulation, IL-6 ELISA; parameters: species or system mice; settings: for IL-6 release in the lymph nodes: mice, oral 20 mg/kg or 60 mg/kg daily for two weeks, ex vivo CpG 1668 1 μg/ml 72 hrs
Method: Mice were orally administered one of those two compounds or hydroxychloroquine (“HCQ”) at either 20 mg/kg or 60 mg/kg daily for two weeks. After in vivo dosing, lymph nodes were removed and stimulated in vitro with CpG 1668 at 1 μg/ml for 72 hrs, after which supernatants were removed and assayed by ELISA for IL-6. Levels of dosing are indicated after each compound name appearing in the Figure.

[3] = system: serum IL-6 after s.c. oligo CpG 1668 challenge; assay: In vivo short term CpG stimulation assay (serum IL-6); parameters: species or system mice; settings: for inhibition in vivo at 20 mg/kg: Mus musculus, po, 2 h, mice, oral in water, s.c. 30 micrograms oligo CpG 1668 within 90 minutes, serum two hours later, repeat assays separated by commas, read-out: Percent short-term IL-6 suppression; for suppression of IL-6 (Table 3): 1.5 hours after oral administration of 20 mg/kg
Method: Short Term CpG Stimulation Assay: Compounds identified as having potency in the HEK/TLR9 and splenocyte CpG 1668 assays described in Example 9, above, were tested in an in vivo short term CpG stimulation assay. Mice were orally administered compound in water, and challenged within 90 minutes by subcutaneous (s.c.) injection of 30 micrograms of oligo CpG 1668. Two hours later serum was taken and assayed for IL-6 using ELISA analysis. Results from assays repeated on different dates are set forth as multiple numbers separated by commas.

NZBWF1/J mice = assay: NZBWF1/J spontaneous lupus model; type: in vivo; settings: for anti-dsDNA: 16 weeks of treatment, 20 mg/kg or 60 mg/kg p.o.; for body weight: after 3 to 4 months of dosing; for distribution of ANA scores: after 12 weeks of treatment
Method: An in vivo study of Compound 23 and Compound 30 was conducted in an NZBWF1/J mouse model. Mice were obtained from Jackson Laboratories, divided into groups of 12, and dosed orally with compounds in water five days a week beginning at 5 months of age.

[4] = system: MOGp35-55-induced EAE in C57BL/6J mice; assay: Experimental autoimmune encephalitis (EAE) multiple sclerosis model; type: in vivo
Method: Experimental autoimmune encephalitis (EAE) is an induced autoimmunity in mice that mimics human multiple sclerosis, including autoantibody and cellular responses targeted against central nervous system antigens. To induce EAE, groups of 8 male C57BL/6J mice (Jackson Laboratories) were immunized subcutaneously on day 0 with the synthetic peptide MOGp35-55 (Becher et al. J. Clin. Invest. 112:1186-1191 (2003)), with amino acid sequence […] (SEQ ID NO:4) at a dose of 200 μg/mouse in complete Freund's adjuvant (CFA). At the same time the animals received pertussis toxin, i.p. at 30 ng/mouse. On day 2 the pertussis injection was repeated. On day 7 the mice were boosted with MOGp35-55, 200 μg/mouse in incomplete Freund's. Beginning on day 9 the mice were dosed daily by oral gavage with Compound 23 in water at 20 mg/kg or 60 mg/kg. Symptoms were scored by observing degree and location of paralysis of the tail and limbs, the average score for each group of 8 mice is shown.

SMILES	IC50 (human TLR7)	IC50 [1]	inhibition in vivo at 20 mg/kg [3]	further results
CCN(CC)CCNCCCOc1ccc(-c2nc3ccc(OCCCNCCN(CC)CC)cc3o2)cc1 [Compound 12]	780 nM	500 nM	–	–
CN(C)CCCOc1ccc(-c2nc3ccc(OCCCN(C)C)cc3o2)cc1 [Compound 2]	2210 nM	500 nM	–	IL-6 release in the lymph nodes [2]: suppressed IL-6 release
c1cc(-c2nc3ccc(OCCCN4CCCC4)cc3o2)ccc1OCCCN1CCCC1 [Compound 23]	1550 nM	600 nM	91%	IL-6 release in the lymph nodes, low dose ([2]; 20 mg/kg oral daily for two weeks): particularly high levels of suppression; IL-6 release in the lymph nodes [2]: suppressed IL-6 release; proteinuria (NZBWF1/J mice; NZB/W mice): no effect; histological examination of muscle, brain, kidney and spleen (hematoxylin and eosin) (NZBWF1/J mice; NZBWF1/J mice): no obvious pathology; anti-dsDNA (NZBWF1/J mice; NZBWF1/J mice): Neither of the compounds tested in this study, Compound 23 or Compound 30, showed an effect on anti-dsDNA; also recorded: no effect; body weight (NZBWF1/J mice; NZBWF1/J mice): dose-related weight loss; distribution of ANA scores (NZBWF1/J mice; NZBWF1/J mice): no effect; MOG-induced EAE symptom score compared to control mice ([4]; 20 mg/kg oral gavage daily from day 9): suppressed significantly; MOG-induced EAE symptom score ([4]; 60 mg/kg oral gavage daily from day 9): suppressed further
CN(C)CCCN(C)CCCOc1ccc(-c2nc3ccc(OCCCN(C)CCCN(C)C)cc3o2)cc1 [Compound 27]	980 nM	–	30%	–
c1cc(-c2nc3ccc(OCCCN4CCC(N5CCCC5)CC4)cc3o2)ccc1OCCCN1CCC(N2CCCC2)CC1 [Compound 20]	1820 nM	700 nM	0%	suppression of IL-6 (Table 3) [3]: No suppression
c1cc(-c2nc3ccc(OCCCN4CCCCC4)cc3o2)ccc1OCCCN1CCCCC1 [Compound 30]	1140 nM	500 nM	93%	histological examination of muscle, brain, kidney and spleen (hematoxylin and eosin) (NZBWF1/J mice; NZBWF1/J mice): no obvious pathology; anti-dsDNA at high dose (NZBWF1/J mice; NZBWF1/J mice, 60 mg/kg p.o.): some suppression of anti-dsDNA at the high dose of 60 mg/kg, but, this was not statistically significant; anti-dsDNA (NZBWF1/J mice; NZBWF1/J mice): Neither of the compounds tested in this study, Compound 23 or Compound 30, showed an effect on anti-dsDNA; body weight (NZBWF1/J mice; NZBWF1/J mice): dose-related weight loss; distribution of ANA scores (NZBWF1/J mice; NZBWF1/J mice): no effect

These reach a lower IC50 (human TLR7). Values come first.

IC50 (human TLR7)	SMILES	IC50 [1]	inhibition in vivo at 20 mg/kg [3]	further results
620 nM	CN1CCCN(CCCOc2ccc(-c3nc4ccc(OCCCN5CCCN(C)CC5)cc4o3)cc2)CC1 [Compound 14]	–	0%	suppression of IL-6 (Table 3) [3]: No suppression
460 nM	c1cc(CN2CCOCC2)ccc1CNCCCOc1ccc(-c2nc3ccc(OCCCNCc4ccc(CN5CCOCC5)cc4)cc3o2)cc1 [Compound 13]	–	40%	–
430 nM	CN(C)[C@@H]1CCN(CCCOc2ccc(-c3nc4ccc(OCCCN5CC[C@@H](N(C)C)C5)cc4o3)cc2)C1 [Compound 16]	400 nM	50%	–
470 nM	CN1CCN(c2ccc(CNCCCOc3ccc(-c4nc5ccc(OCCCNCc6ccc(N7CCN(C)CC7)cc6)cc5o4)cc3)cc2)CC1 [Compound 11]	600 nM	–	–
440 nM	CCN(CC)CCN(C)CCCOc1ccc(-c2nc3ccc(OCCCN(C)CCN(CC)CC)cc3o2)cc1 [Compound 31]	200 nM	–	–
500 nM	CN(C)CCN(C)CCCOc1ccc(-c2nc3ccc(OCCCN(C)CCN(C)C)cc3o2)cc1 [Compound 22]	–	36%	–

— patent publication US8354400B2, “Benzoxazole compounds and methods of use” (Eisai R&D Co., Ltd., priority 2008, dated 2013)
